Values joined by “and” are separate entries in the source; they are usually repeats but may differ in a detail not shown here. Identical values can stand only once. “Also recorded” adds a separate entry of the source. Like-named read-outs stand apart in the source and are kept apart here.
Experiments:
[1] = molecular target: KCNQ4 (Homo sapiens, UniProt P56696); experiment: TEVC of homomeric KCNQ4 expressed in Xenopus oocytes; assay type: cell-based; details: for effects on KCNQ4: dose response
Description: (§1) We generated cRNA transcripts encoding human KCNQ1, KCNQ2, KCNQ3, KCNQ4, KCNQ5 or GLRA1 (NM_001146040) (GenScript, Piscataway, NJ, USA) by in vitro transcription using the T7 polymerase mMessage mMachine kit (Thermo Fisher Scientific), after vector linearization, from cDNA sub-cloned into plasmids incorporating Xenopus laevis β-globin 5′ and 3′ UTRs flanking the coding region to enhance translation and cRNA stability. We quantified cRNA by spectrophotometry. We generated mutant KCNQ2 and KCNQ3 cDNAs by site-directed mutagenesis using a QuikChange kit (Stratagene, San Diego, CA) and prepared the corresponding cRNAs as above. We injected defolliculated stage V and VI Xenopus laevis oocytes (Ecocyte Bioscience, Austin, TX and Xenoocyte, Dexter, MI) with KCNQ channel α subunit (5-20 ng) or GLRA1 (20 ng) cRNAs. We incubated the oocytes at 16 °C in Barth’s saline solution (Ecocyte Bioscience) containing penicillin and streptomycin, with daily washing, for 2–5 days prior to two-electrode voltage-clamp (TEVC) recording.
(§2) We performed TEVC at room temperature using an OC-725C amplifier (Warner Instruments, Hamden, CT) and pClamp10 software (Molecular Devices, Sunnyvale, CA) 2–5 days after cRNA injection as described in the section above. For recording, oocytes were placed in a small-volume oocyte bath (Warner) and viewed them with a dissection microscope. Chemicals were sourced from Sigma, Matrix Scientific and Santa Cruz. […] All stock solutions were diluted in bath solution on the day of experiments. KCNQ2/3 channel activation was screened for using either 30 µM or 100 µM concentrations of each of the six compounds, then dose responses were conducted as appropriate. Bath solution was (in mM): 96 NaCl, 4 KCl, 1 MgCl2, 1 CaCl2, 10 HEPES (pH 7.6). Compounds were introduced into the oocyte recording bath by gravity perfusion at a constant flow of 1 ml per minute for 3 min prior to recording. Pipettes were of 1–2 MΩ resistance when filled with 3 M KCl. Currents were recorded in response to voltage pulses between −120 or −80 mV and + 40 mV at 20 mV intervals from a holding potential of −80 mV, to yield current-voltage relationships, current magnitude, and for quantifying activation rate. We analyzed data using Clampfit (Molecular Devices) and Graphpad Prism software (GraphPad, San Diego, CA, USA); values are stated as mean ± SEM. We plotted raw or normalized tail currents versus prepulse voltage and fitted with a single Boltzmann function:1 g=(A1−A2)/1+exp(V12−V)∕VS+A2, where g is the normalized tail conductance, A1 is the initial value at −∞, A2 is the final value at +∞, V1/2 is the half-maximal voltage of activation and Vs the slope factor. Activation, deactivation, wash-in and washout kinetics were fitted with single exponential functions to yield a τ value.

[2] = molecular target: T1, KCNQ3* (Homo sapiens, UniProt O43525, A315T); experiment: [3H]GABA binding and competition, oocytes expressing KCNQ3*
Description: (§4) Oocytes were then washed four times in 16 °C ND96, transferred to individual wells in a 96 well plate and lysed in 0.2% SDS in ND96. Each oocyte lysate was transferred to a scintillation vial containing 5 ml Cytoscint scintillation cocktail fluid (MP Biomedicals, Santa Ana, CA). Vials were capped, shaken, and then allowed to sit at room temperature for at least 30 min before scintillation counting in a Beckmann Coulter LS6500 liquid scintillation counter.

[3] = molecular target: T1, KCNQ3*; design: method as in PMID 29748663; details: cited from earlier work
[4] = molecular target: T2, KCNQ5 (Homo sapiens, UniProt Q9NR82); design: method as in PMID 29748663; details: cited from earlier work
[5] = molecular target: T3, KCNQ2 (Homo sapiens, UniProt O43526); design: method as in PMID 30021858; details: cited from earlier work
[6] = molecular target: T4, KCNQ1 (Homo sapiens, UniProt P51787); experiment: TEVC of homomeric KCNQ1 expressed in Xenopus oocytes; assay type: cell-based
Description: as §1
(§3) We performed TEVC at room temperature using an OC-725C amplifier (Warner Instruments, Hamden, CT) and pClamp10 software (Molecular Devices, Sunnyvale, CA) 2–5 days after cRNA injection as described in the section above. For recording, oocytes were placed in a small-volume oocyte bath (Warner) and viewed them with a dissection microscope. Chemicals were sourced from Sigma, Matrix Scientific and Santa Cruz. […] All stock solutions were diluted in bath solution on the day of experiments. KCNQ2/3 channel activation was screened for using either 30 µM or 100 µM concentrations of each of the six compounds, then dose responses were conducted as appropriate. […] Currents were recorded in response to voltage pulses between −120 or −80 mV and + 40 mV at 20 mV intervals from a holding potential of −80 mV, to yield current-voltage relationships, current magnitude, and for quantifying activation rate. We analyzed data using Clampfit (Molecular Devices) and Graphpad Prism software (GraphPad, San Diego, CA, USA); values are stated as mean ± SEM. […]

[7] = molecular target: T3, KCNQ2; experiment: TEVC of homomeric KCNQ2 expressed in Xenopus oocytes; assay type: cell-based
Description: as §1, with “We generated mutant KCNQ2 and KCNQ3 cDNAs by site-directed mutagenesis using a QuikChange kit (Stratagene, San Diego, CA) and prepared the corresponding cRNAs as above.” left out
as §2, with “For” for “We performed TEVC at room temperature using an OC-725C amplifier (Warner Instruments, Hamden, CT) and pClamp10 software (Molecular Devices, Sunnyvale, CA) 2–5 days after cRNA injection as described in the section above. For”

[8] = molecular target: T5, KCNQ2/3 (Homo sapiens, UniProt O43525+O43526); experiment: TEVC of KCNQ2/3 channels expressed in Xenopus oocytes; assay type: cell-based; details: TEVC in oocytes; for EC50: shift in voltage dependence of activation (ΔV0.5act)
T5 sequence (O43525 whole entry): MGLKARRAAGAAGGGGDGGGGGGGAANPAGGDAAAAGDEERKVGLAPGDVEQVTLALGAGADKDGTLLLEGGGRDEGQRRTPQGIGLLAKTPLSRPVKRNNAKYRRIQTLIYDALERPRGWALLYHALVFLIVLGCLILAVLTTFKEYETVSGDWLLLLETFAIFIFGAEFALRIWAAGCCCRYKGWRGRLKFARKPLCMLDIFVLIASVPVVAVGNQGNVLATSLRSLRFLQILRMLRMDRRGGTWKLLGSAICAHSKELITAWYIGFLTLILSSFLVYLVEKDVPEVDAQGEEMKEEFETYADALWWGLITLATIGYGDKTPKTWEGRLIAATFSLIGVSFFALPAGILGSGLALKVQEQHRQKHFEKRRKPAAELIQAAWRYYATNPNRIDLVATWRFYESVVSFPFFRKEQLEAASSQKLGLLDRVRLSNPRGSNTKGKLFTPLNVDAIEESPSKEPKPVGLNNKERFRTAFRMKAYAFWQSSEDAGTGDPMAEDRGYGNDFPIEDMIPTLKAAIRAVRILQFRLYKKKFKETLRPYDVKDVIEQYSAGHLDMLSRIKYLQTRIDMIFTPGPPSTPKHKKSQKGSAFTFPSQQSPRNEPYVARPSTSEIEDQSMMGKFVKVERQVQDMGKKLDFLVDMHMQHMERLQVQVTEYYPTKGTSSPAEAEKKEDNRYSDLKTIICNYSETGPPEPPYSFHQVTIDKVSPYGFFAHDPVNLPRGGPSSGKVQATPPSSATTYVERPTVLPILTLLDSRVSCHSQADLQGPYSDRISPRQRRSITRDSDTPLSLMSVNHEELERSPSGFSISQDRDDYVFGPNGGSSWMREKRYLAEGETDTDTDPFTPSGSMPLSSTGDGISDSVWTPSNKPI
T5 sequence (O43526 whole entry): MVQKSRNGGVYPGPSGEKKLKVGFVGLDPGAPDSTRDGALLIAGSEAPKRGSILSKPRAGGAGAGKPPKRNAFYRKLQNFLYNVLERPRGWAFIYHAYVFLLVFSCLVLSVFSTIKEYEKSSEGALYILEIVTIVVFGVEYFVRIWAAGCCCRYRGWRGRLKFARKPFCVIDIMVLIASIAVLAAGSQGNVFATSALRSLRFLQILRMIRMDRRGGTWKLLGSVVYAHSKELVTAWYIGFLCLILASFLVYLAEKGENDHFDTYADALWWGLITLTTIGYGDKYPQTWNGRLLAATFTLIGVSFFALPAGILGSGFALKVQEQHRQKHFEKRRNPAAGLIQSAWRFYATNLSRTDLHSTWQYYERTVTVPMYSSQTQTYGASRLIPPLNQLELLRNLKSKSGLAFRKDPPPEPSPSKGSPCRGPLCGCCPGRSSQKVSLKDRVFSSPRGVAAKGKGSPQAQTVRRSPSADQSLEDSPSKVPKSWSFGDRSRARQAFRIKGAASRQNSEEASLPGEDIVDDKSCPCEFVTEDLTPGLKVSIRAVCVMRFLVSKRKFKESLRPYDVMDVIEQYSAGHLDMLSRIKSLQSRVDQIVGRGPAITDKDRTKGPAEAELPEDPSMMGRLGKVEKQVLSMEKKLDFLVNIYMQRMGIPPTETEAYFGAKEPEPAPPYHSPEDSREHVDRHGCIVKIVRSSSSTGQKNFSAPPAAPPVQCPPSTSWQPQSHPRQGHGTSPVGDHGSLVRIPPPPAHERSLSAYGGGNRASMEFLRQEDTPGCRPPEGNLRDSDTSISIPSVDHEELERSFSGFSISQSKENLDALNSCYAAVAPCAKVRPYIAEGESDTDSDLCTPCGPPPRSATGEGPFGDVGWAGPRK
Description: as §1, with “We generated mutant KCNQ2 and KCNQ3 cDNAs by site-directed mutagenesis using a QuikChange kit (Stratagene, San Diego, CA) and prepared the corresponding cRNAs as above.” left out
as §2, with “For” for “We performed TEVC at room temperature using an OC-725C amplifier (Warner Instruments, Hamden, CT) and pClamp10 software (Molecular Devices, Sunnyvale, CA) 2–5 days after cRNA injection as described in the section above. For”

[9] = molecular target: T2, KCNQ5; experiment: TEVC of homomeric KCNQ5 expressed in Xenopus oocytes; assay type: cell-based; details: dose response
Description: as §1, §3

[10] = molecular target: T1, KCNQ3*; experiment: TEVC of homomeric KCNQ3* (A315T KCNQ3 mutant) expressed in Xenopus oocytes; assay type: cell-based; details: dose response
Description: We next validated the in silico predictions using two-electrode voltage clamp of homomeric neuronal KCNQ2-5 channel isoforms expressed in Xenopus laevis oocytes. […] As in previous studies[8],[10], we used the A315T KCNQ3 mutant (KCNQ3*) that ensures large enough currents to accurately quantify voltage dependence and pharmacology of homomeric KCNQ3[16].
as §1
as §2, with “We plotted raw or normalized tail currents versus prepulse voltage and fitted with a single Boltzmann function:1 g=(A1−A2)/1+exp(V12−V)∕VS+A2, where g is the normalized tail conductance, A1 is the initial value at −∞, A2 is the final value at +∞, V1/2 is the half-maximal voltage of activation and Vs the slope factor. Activation, deactivation, wash-in and washout kinetics were fitted with single exponential functions to yield a τ value.” left out

[11] = molecular target: T6, KCNQ3*-R242A (Homo sapiens, UniProt O43525, A315T/R242A); experiment: TEVC of homomeric KCNQ3*-R242A; assay type: cell-based; details: 100 µM
T6 sequence (O43525 1-872 R242A/A315T): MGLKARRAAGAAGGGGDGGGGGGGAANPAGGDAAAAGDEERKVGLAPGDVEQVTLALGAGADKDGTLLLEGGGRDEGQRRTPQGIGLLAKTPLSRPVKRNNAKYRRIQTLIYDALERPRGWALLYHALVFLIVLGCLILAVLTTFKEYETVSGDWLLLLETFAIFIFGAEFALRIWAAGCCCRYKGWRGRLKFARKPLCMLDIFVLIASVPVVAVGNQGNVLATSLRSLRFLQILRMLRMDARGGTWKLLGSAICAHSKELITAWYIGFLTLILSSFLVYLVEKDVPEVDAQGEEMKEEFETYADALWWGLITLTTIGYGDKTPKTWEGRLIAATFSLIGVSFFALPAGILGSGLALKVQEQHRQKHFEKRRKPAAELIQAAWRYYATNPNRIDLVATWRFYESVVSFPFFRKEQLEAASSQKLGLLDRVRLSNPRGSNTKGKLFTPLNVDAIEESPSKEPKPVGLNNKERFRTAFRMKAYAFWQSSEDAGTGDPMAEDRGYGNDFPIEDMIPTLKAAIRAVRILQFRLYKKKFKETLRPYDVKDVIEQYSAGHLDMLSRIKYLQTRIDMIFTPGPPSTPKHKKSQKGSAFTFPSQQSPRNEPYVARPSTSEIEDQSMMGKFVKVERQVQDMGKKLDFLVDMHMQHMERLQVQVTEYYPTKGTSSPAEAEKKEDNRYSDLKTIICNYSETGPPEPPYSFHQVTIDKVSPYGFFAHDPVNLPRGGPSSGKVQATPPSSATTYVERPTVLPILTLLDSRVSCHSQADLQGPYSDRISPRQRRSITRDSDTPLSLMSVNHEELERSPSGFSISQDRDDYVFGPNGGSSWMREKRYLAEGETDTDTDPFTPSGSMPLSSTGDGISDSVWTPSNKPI
Description: We generated cRNA transcripts encoding human KCNQ1, KCNQ2, KCNQ3, KCNQ4, KCNQ5 or GLRA1 (NM_001146040) (GenScript, Piscataway, NJ, USA) by in vitro transcription using the T7 polymerase mMessage mMachine kit (Thermo Fisher Scientific), after vector linearization, from cDNA sub-cloned into plasmids incorporating Xenopus laevis β-globin 5′ and 3′ UTRs flanking the coding region to enhance translation and cRNA stability. We quantified cRNA by spectrophotometry. We generated mutant KCNQ2 and KCNQ3 cDNAs by site-directed mutagenesis using a QuikChange kit (Stratagene, San Diego, CA) and prepared the corresponding cRNAs as above. […]
We performed TEVC at room temperature using an OC-725C amplifier (Warner Instruments, Hamden, CT) and pClamp10 software (Molecular Devices, Sunnyvale, CA) 2–5 days after cRNA injection as described in the section above. […] Currents were recorded in response to voltage pulses between −120 or −80 mV and + 40 mV at 20 mV intervals from a holding potential of −80 mV, to yield current-voltage relationships, current magnitude, and for quantifying activation rate. We analyzed data using Clampfit (Molecular Devices) and Graphpad Prism software (GraphPad, San Diego, CA, USA); values are stated as mean ± SEM. […]

[12] = molecular target: T4, KCNQ1; details: cited from earlier work
[13] = molecular target: T7, GLRA1 (Homo sapiens, UniProt P23415); experiment: TEVC of glycine receptor GLRA1 expressed in Xenopus oocytes; assay type: cell-based; details: 1 mM, compound alone
T7 sequence (P23415 29-457): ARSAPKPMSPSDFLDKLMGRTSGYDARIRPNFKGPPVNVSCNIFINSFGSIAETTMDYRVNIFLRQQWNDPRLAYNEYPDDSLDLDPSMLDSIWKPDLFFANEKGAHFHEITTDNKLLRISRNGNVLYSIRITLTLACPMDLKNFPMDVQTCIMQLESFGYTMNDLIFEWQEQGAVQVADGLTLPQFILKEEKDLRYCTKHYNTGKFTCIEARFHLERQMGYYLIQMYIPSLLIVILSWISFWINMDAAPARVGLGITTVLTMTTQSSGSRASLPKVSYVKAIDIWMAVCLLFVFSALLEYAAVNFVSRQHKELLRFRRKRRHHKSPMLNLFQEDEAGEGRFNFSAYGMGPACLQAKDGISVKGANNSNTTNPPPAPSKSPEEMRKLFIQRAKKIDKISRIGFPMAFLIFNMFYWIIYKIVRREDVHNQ
Description: as §1, §2

[14] = molecular target: T5, KCNQ2/3
Description: as §4

For `NCCCC(=O)O` [GABA, γ-aminobutyric acid, reference compound], the “effects on KCNQ4” value [1] is given as “unable to open”, the “[3H]GABA binding to KCNQ3*” value [2] is given as “bound” and the “activation of KCNQ3” value [3] is given as “activate only KCNQ3 and KCNQ5”. The “activation of KCNQ5” value [4] was “activate only KCNQ3 and KCNQ5”.
For `NCC1(CC(=O)O)CCCCC1` [gabapentin], the “activation of KCNQ3” value [3] is given as “activate only KCNQ3 and KCNQ5”, the “activation of KCNQ5” value [4] is given as “activate only KCNQ3 and KCNQ5” and the “activation of KCNQ2” value [5] is given as “not KCNQ2”.
With `NC(C(=O)O)c1ccc(F)cc1` (stereo not drawn) [4FPG, 4-(fluorophenyl)glycine] the “KCNQ4 activation and deactivation rates” value ([1]; 30 µM) was “speeded KCNQ2 and KCNQ4 activation and slowed their deactivation”, the EC50 ([1]; ΔV0.5act, read-out: EC50, KCNQ4 activation) was 49 ± 12 nM and the “KCNQ1 activation and deactivation rates” value ([6]; 30 µM) was “slowed KCNQ1 deactivation but did not speed its activation”. For the same compound, the EC50 ([6]; ΔV0.5act, read-out: EC50, KCNQ1 activation) was 90 ± 20 nM, the “KCNQ2 activation and deactivation rates” value ([7]; 4FPG 30 µM, 2FPG 100 µM) was “speeded KCNQ2 and KCNQ4 activation and slowed their deactivation” and the EC50 ([7]; wild-type KCNQ2, ΔV0.5act, read-out: EC50, KCNQ2 activation) was 69 ± 31 nM. The EC50 ([8]; read-out: EC50, KCNQ2/3 activation) was 61 ± 42 nM, the “effects on KCNQ5” value [9] was “no effects” and the “effects on KCNQ3*” value [10] was “no effects”.
In the case of `CCOC(=O)Nc1ccc(NCc2ccc(F)cc2)cc1N` [retigabine, reference compound], the “effect on nonfunctional KCNQ3*-R242A” value [11] is listed as “awakened neither by 3FMSG nor retigabine”, the “activation of KCNQ1” value [12] is listed as “does not activate KCNQ1” and the EC50 ([8]; EC50, KCNQ2/3 activation) is listed as 6900 nM and 6870 nM.
In the case of `NCC(=O)O` [glycine, reference compound], the “effects on KCNQ4” value [1] is reported as “unable to open”, the “effects on KCNQ2” value ([7]; dose response) is reported as “unable to open” and the “activation of GLRA1” value [13] is reported as “robust activation”. For the same compound, the “binding of tritiated ligand to wild-type KCNQ2/3” value ([14]; CPM over 30 min) was “did not”, the “inhibition of GABA binding to wild-type KCNQ2/3” value ([14]; cold glycine 100 µM) was “did not inhibit GABA binding” and the “activation of KCNQ2/3” value [8] was “nor does it activate KCNQ2/3; also recorded: no effect”. The “effects on KCNQ5” value [9] was “no effects” and the “effects on KCNQ3*” value [10] was “no effects”.

Reference: publication PMC6825221, “In silico re-engineering of a neurotransmitter to activate KCNQ potassium channels in an isoform-specific manner” (Communications Biology, 2019)
